Experimental findings from ChEMBL document CHEMBL1144655, “Potent and selective isophthalamide S2 hydroxyethylamine inhibitors of BACE1” (Bioorg Med Chem Lett, 2007) are described below.

Bounds are passed on as bounds.

The IC50 is the point on the concentration scale where inhibition reaches its midpoint. A high value points to weaker potency in that assay.

Test [1] deals with Beta-secretase 1 (Homo sapiens, UniProt P56817). Nature of the test: Inhibition of BACE1.
The target of test [2] is Cathepsin D (Homo sapiens, UniProt P07339). Nature of the test: Inhibition of cathepsin D.
Cathepsin D, sequence (P07339 65-162 limits assumed): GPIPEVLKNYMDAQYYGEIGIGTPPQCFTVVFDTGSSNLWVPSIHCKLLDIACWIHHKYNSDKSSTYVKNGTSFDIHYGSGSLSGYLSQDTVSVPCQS
Cathepsin D, sequence (P07339 169-412 limits assumed): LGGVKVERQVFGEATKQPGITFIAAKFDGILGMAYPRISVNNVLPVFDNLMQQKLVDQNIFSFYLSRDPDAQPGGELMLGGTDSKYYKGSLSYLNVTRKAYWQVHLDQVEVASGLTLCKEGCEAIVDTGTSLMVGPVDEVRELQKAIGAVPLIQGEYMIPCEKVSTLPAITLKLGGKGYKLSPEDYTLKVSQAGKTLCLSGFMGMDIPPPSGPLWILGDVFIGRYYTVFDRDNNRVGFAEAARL

Beta-secretase 1, sequence (P56817 whole entry): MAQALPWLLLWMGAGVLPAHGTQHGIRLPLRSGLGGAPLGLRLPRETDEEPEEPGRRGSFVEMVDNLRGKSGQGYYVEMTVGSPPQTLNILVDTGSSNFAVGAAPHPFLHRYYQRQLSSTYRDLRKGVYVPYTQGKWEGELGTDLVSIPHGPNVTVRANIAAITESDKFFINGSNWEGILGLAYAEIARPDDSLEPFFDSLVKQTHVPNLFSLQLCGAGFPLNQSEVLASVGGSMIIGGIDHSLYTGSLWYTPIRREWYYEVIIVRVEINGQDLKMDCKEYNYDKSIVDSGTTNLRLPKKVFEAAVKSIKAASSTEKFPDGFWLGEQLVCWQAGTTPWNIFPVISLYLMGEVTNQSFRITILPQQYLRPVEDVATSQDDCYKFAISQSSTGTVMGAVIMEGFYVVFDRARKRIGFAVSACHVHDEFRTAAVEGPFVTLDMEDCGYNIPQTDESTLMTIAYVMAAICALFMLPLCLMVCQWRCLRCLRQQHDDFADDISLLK

For `CCCN(CCC)C(=O)c1cc(C(N)=O)cc(C(=O)N[C@@H](Cc2cc(F)cc(F)c2)[C@H](O)CNCc2cccc(CC)c2)c1`, the concentration for half-maximal inhibition (IC50) in test [1] was found to be 5 nM; in test [2], 1600 nM.

For `CCCN(CCC)C(=O)c1cc(C(N)=O)cc(C(=O)N[C@@H](Cc2ccc(O)cc2)[C@H](O)CNCc2cccc(OC)c2)c1`, the concentration for half-maximal inhibition (IC50) in test [1] is 300 nM; in test [2], over 20000 nM.

With `CCCN(CCC)C(=O)c1cc(C)cc(C(=O)N[C@@H](Cc2ccccc2)[C@H](O)CNCc2cccc(OC)c2)c1`, the IC50 worked out at 100 nM in test [1] and 450 nM in test [2].

With `CCCN(CCC)C(=O)c1cc(CC#N)cc(C(=O)N[C@@H](Cc2ccccc2)[C@H](O)CNCc2cccc(OC)c2)c1`, the results for the IC50 in test [1] and in test [2] were 360 nM and 570 nM, respectively.

As for `CCCN(CCC)C(=O)c1cc(C(=O)N[C@@H](Cc2ccccc2)[C@H](O)CNCc2cccc(OC)c2)cc(C(=O)N(CCC)CCC)c1`, the results for the IC50 in test [1] and in test [2] were 250 nM and 3600 nM, respectively.

For the compound `CCCN(CCC)C(=O)c1cc(C(N)=O)cc(C(=O)N[C@@H](Cc2ccccc2)[C@H](O)CNCc2cccc(OC)c2)c1`, the half-inhibitory concentration (IC50) in test [1] is 100 nM; in test [2], 2800 nM.

Turning to `CCCN(CCC)C(=O)c1cc(C(N)=O)cc(C(=O)N[C@@H](Cc2cc(F)cc(F)c2)[C@H](O)CNCc2cccc(OC)c2)c1`, inhibition in test [2] was half-maximal at 2400 nM (IC50).

Regarding `CCCNC(=O)c1cc(C(N)=O)cc(C(=O)N[C@@H](Cc2ccccc2)[C@H](O)CNCc2cccc(OC)c2)c1`, the IC50 in test [1] is 1900 nM; in test [2], over 20000 nM.

With `CCCN(CCC)C(=O)c1cc(C(=O)N[C@@H](Cc2ccccc2)[C@H](O)CNCc2cccc(OC)c2)cc(C(=O)N(C)C)c1`, the IC50 in test [1] came to 70 nM; in test [2], 3800 nM.

As for `CCCN(CCC)C(=O)c1cc(C)cc(C(=O)N[C@@H](Cc2cc(F)cc(F)c2)[C@H](O)CNCc2cccc(CC)c2)c1`, the figures for the half-maximal inhibitory concentration (IC50) in test [1] and in test [2] were 2 nM and 150 nM, respectively.

`CCCN(CCC)C(=O)c1cc(C(=O)O)cc(C(=O)N[C@@H](Cc2ccccc2)[C@H](O)CNCc2cccc(OC)c2)c1`: the concentration for half-maximal inhibition (IC50) in test [1] is 30 nM; in test [2], 3600 nM.

With `CCCNC(=O)c1cc(C#N)cc(C(=O)N[C@@H](Cc2ccccc2)[C@H](O)CNCc2cccc(OC)c2)c1`, the IC50 was 770 nM in test [1] and over 20000 nM in test [2].

Regarding `CCCN(CCC)C(=O)c1cc(C#N)cc(C(=O)N[C@@H](Cc2ccccc2)[C@H](O)CNCc2cccc(OC)c2)c1`, the IC50 in test [1] turned out to be 90 nM; in test [2], 660 nM.

In the case of `CCCN(CCC)C(=O)c1cc(C(=O)N[C@@H](Cc2ccccc2)[C@H](O)CNCc2cccc(OC)c2)cc(C(=O)OCC)c1`, the results for the IC50 in test [1] and in test [2] were 132 nM and 866 nM, respectively.
